Test results published in patent US20260216133A1, “AEROSOL COMPRISING 5-METHOXY-N,N-DIMETHYLTRYPTAMINE” (GH Research Ireland Limited, priority 2020, published 2026).
“And” between values parts separate entries of the source, which are not always exact repeats. Equal entries are not always repeated.

Experiments:
[1] = Aerosol particle formation rate (aerosolized dose/aerosolization time); assay type: physicochemical; conditions: aerosolization time 15 seconds
Experimental: The aerosol particle formation rate can be calculated as follows: Aerosol particle formation rate=Aerosolized dose/Aerosolization time. For the aerosolized dose data and the aerosolization time of 15 seconds from Example 2, the following aerosol particle formation rate was determined: […]

[2] = Aerosolization of 5-MeO-DMT from dosing capsules (Volcano Medic), aerosolized dose by weighing; conditions: triplicate capsules; for Aerosolized dose: 210° C., 12 l/min, 15 seconds
[3] = Aerosol 5-MeO-DMT mass density (aerosolized dose/aerosol volume); assay type: physicochemical; conditions: aerosol volume about 3 liters
Experimental: The aerosol 5-MeO-DMT mass density can be calculated as follows: Aerosol 5-MeO-DMT mass density =Aerosolized dose/Aerosol volume. For the aerosolized dose data and the aerosol volume of about 3 liters from Example 2, the following aerosol 5-MeO-DMT mass density was determined: […]

[4] = Particle size distribution of 5-MeO-DMT aerosol, Next Generation Impactor (NGI); assay type: physicochemical
Experimental: The particle size distribution of 5-MeO-DMT aerosol particles as generated according to the compositions and methods of the present invention are determined according to United States Pharmacopeia (USP) methods using the Next Generation Impactor (NGI) (United States Pharmacopeia (USP)<601> Apparatus 6) as shown in FIG. 2.
This device fractionates the bolus aerosol delivered into a discrete series of size ranges on the basis of particle or droplet inertia and provides a measure of the aerodynamic diameter of the aerosol droplets produced. The droplet size range captured by each stage in the NGI can be dependent on the measured airflow used. For the present analysis, experiments are carried out using an airflow of 30 liters/minute (Experiments 1 and 3) and of 15 liters/minute (Experiments 2 and 4).
Based on a log-normal distribution of particle sizes, the aerodynamic size distribution is characterized by the mass median aerodynamic diameter (MMAD) and geometric standard deviation (GSD). Moreover, the fine particle fraction (FPF) is determined as the weight percentage of droplets having an aerodynamic diameter of less than or equal to 5 μm, relative to the total of droplets on the impactor.
A first experiment is carried out using a Volcano Medic Vaporization System as described in Example 1 with dosing capsules having a nominal drug load of 6 mg 5-MeO-DMT free base/capsule. The aerosol recovered in the balloon is measured using the NGI operated using a flow rate of 30 liters/min.
A second experiment is carried also out using a Volcano Medic Vaporization System as described in Example 1 with dosing capsules having a nominal drug load of 6 mg 5-MeO-DMT free base/capsule. The aerosol recovered in the balloon is measured using the NGI operated using a flow rate of 15 liters/min.
In this experiment, NGI cups were coated with glycerol to prevent possible droplet re-entrainment. In addition, approximately 8 drops of 30% glycerol in water were added to each filter paper located underneath the corresponding NGI Stage Jets.

[5] = Degradation products of 5-MeO-DMT aerosol by HPLC after SPE extraction; conditions: 18 mg capsule, 210° C. aerosolization, Replicate 1, Extract 1; including the additional amount of Impurity 1
[6] = Experiment 1: 6 mg/capsule, NGI 30 liters/min, mean of 3 runs
[7] = Experiment 1: 6 mg/capsule, NGI 30 liters/min, single runs
[8] = Experiment 2: 6 mg/capsule, NGI 15 liters/min, Mean (Runs 1-3)
[9] = Experiment 2: 6 mg/capsule, NGI 15 liters/min, Mean (Runs 2, 3)
[10] = Experiment 3: 18 mg/capsule, NGI 30 liters/min, mean of 3 runs
[11] = Experiment 3: 18 mg/capsule, NGI 30 liters/min, single runs
[12] = Experiment 4: 18 mg/capsule, NGI 15 liters/min, glycerol-coated cups, single runs
[13] = Experiment 4: 18 mg/capsule, NGI 15 liters/min, mean of 3 runs

In the case of `COc1ccc2[nH]cc(CCN(C)C)c2c1` [5-MeO-DMT, 5-methoxy-N,N-dimethyltryptamine], the “Aerosol particle formation rate” value ([1]; target dosage 2 mg) was 0.12 mg/s, the “Aerosol particle formation rate” value ([1]; target dosage 18 mg) was 1.09 mg/s and 1.08 mg/s and the “Aerosolized dose, % of loaded dose” value ([2]; target dosage 2 mg) was 100.5% and 99.5%. The Aerosolized dose ([2]; target dosage 2 mg) was 1.9 mg, the “Aerosolized dose, % of loaded dose” value ([2]; target dosage 18 mg) was 96.3% and 96.5% and 95.9% and the Aerosolized dose ([2]; target dosage 18 mg) was 16.3 mg and 16.2 mg. For the same compound, the “Aerosol 5-MeO-DMT mass density” value ([3]; target dosage 2 mg) was 0.62 mg/L, the “Aerosol 5-MeO-DMT mass density” value ([3]; target dosage 18 mg) was 5.45 mg/L and 5.38 mg/L and 5.43 mg/L and the FPF [4, 6] was 97.95%. For the same compound, the GSD [4, 6] was 3.49, the MMAD [4, 6] was 0.40 μm and the GSD [4, 7] was 4.70 and 3.05 and 2.71. For the same compound, the MMAD [4, 7] was 0.33 μm and 0.46 μm and 0.42 μm, the FPF ([4]; Experiment 1: 6 mg/capsule, NGI 30 liters/min, single runs, droplets <= 5 μm) was 96.19% and 98.35% and 99.31% and the FPF [4, 8] was 94.85%. For the same compound, the GSD [4, 8] was 4.63, the MMAD [4, 8] was 0.57 μm and the FPF [4, 9] was 94.67%. For the same compound, the GSD [4, 9] was 3.20, the MMAD [4, 9] was 0.77 μm and the FPF ([4]; Experiment 2: 6 mg/capsule, NGI 15 liters/min, glycerol-coated cups, single runs, Run 1 may not be reliable) was 95.22% and 93.54% and 95.79%. The FPF [4, 10] was 94.64%, the GSD [4, 10] was 2.65 and the MMAD [4, 10] was 1.05 μm. For the same compound, the FPF [4, 11] was 93.13% and 94.08% and 96.72%, the GSD [4, 11] was 2.98 and 2.52 and 2.44 and the MMAD [4, 11] was 0.98 μm and 1.19 μm and 0.97 μm. The FPF [4, 12] was 93.23% and 92.66% and 91.40%, the GSD [4, 12] was 2.66 and 2.77 and 2.10 and the MMAD [4, 12] was 1.16 μm and 1.14 μm and 1.82 μm. It also gave an FPF [4, 13] of 92.43%, a GSD [4, 13] of 2.51 and an MMAD [4, 13] of 1.37 μm. For the same compound, the “total percentage of 5-MeO-DMT degradation products in the aerosol” value [5] was 0.19%.
